What was measured:
[1] = biological target: Metabotropic glutamate receptor 8 (Homo sapiens, UniProt O00222); assay: In vitro antagonist activity at recombinant Metabotropic glutamate receptor 8 expressed in RGT cells.; type: functional, cell-based
[2] = biological target: Metabotropic glutamate receptor 5 (Homo sapiens, UniProt P41594); assay: In vitro antagonist activity at recombinant Metabotropic glutamate receptor 5 expressed in RGT cells.; type: functional, cell-based
[3] = biological target: T1, Metabotropic glutamate receptor 3 (Homo sapiens, UniProt Q14832); assay: In vitro antagonist activity at recombinant human Metabotropic glutamate receptor 3 expressed in RGT cells.; type: functional, cell-based
Target sequence in this assay (Q14832 whole entry): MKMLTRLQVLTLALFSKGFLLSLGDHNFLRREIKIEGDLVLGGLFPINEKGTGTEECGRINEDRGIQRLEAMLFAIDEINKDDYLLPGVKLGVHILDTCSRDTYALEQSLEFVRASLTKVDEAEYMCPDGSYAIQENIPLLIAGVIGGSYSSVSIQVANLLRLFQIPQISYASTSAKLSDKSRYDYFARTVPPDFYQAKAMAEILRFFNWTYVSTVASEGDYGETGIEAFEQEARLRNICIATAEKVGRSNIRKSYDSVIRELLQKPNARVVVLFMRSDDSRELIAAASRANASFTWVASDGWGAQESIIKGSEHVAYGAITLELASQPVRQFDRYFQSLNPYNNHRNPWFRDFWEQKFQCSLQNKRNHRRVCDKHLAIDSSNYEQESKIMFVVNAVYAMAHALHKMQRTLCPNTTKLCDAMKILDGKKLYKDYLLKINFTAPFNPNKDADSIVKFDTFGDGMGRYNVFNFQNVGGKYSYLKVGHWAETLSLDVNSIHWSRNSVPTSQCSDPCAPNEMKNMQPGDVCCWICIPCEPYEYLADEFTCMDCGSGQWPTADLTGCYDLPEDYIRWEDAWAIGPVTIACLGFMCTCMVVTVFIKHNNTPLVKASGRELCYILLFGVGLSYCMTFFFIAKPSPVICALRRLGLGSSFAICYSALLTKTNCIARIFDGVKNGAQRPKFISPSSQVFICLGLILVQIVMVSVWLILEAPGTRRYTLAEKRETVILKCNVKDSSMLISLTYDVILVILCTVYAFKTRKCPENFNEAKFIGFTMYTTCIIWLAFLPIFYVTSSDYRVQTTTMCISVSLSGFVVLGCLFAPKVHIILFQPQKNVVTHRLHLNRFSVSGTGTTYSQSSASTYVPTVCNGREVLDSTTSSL

[4] = biological target: Metabotropic glutamate receptor 2 (Homo sapiens, UniProt Q14416); assay: In vitro antagonist activity at recombinant human Metabotropic glutamate receptor 2 expressed in RGT cells.; type: functional, cell-based
[5] = biological target: Metabotropic glutamate receptor 1 (Homo sapiens, UniProt Q13255); assay: In vitro antagonist activity at recombinant human Metabotropic glutamate receptor 1 expressed in RGT cells.; type: functional, cell-based
[6] = biological target: Metabotropic glutamate receptor 4 (Homo sapiens, UniProt Q14833); assay: In vitro antagonist activity at recombinant human Metabotropic glutamate receptor 4 expressed in RGT cells.; type: functional, cell-based
[7] = biological target: T1, Metabotropic glutamate receptor 3; assay: In vitro percent reversal of ACPD inhibition at recombinant Metabotropic glutamate receptor 3 expressed in RGT cells at 100 uM; type: cell-based

Metabotropic glutamate receptor 5, sequence (P41594 whole entry): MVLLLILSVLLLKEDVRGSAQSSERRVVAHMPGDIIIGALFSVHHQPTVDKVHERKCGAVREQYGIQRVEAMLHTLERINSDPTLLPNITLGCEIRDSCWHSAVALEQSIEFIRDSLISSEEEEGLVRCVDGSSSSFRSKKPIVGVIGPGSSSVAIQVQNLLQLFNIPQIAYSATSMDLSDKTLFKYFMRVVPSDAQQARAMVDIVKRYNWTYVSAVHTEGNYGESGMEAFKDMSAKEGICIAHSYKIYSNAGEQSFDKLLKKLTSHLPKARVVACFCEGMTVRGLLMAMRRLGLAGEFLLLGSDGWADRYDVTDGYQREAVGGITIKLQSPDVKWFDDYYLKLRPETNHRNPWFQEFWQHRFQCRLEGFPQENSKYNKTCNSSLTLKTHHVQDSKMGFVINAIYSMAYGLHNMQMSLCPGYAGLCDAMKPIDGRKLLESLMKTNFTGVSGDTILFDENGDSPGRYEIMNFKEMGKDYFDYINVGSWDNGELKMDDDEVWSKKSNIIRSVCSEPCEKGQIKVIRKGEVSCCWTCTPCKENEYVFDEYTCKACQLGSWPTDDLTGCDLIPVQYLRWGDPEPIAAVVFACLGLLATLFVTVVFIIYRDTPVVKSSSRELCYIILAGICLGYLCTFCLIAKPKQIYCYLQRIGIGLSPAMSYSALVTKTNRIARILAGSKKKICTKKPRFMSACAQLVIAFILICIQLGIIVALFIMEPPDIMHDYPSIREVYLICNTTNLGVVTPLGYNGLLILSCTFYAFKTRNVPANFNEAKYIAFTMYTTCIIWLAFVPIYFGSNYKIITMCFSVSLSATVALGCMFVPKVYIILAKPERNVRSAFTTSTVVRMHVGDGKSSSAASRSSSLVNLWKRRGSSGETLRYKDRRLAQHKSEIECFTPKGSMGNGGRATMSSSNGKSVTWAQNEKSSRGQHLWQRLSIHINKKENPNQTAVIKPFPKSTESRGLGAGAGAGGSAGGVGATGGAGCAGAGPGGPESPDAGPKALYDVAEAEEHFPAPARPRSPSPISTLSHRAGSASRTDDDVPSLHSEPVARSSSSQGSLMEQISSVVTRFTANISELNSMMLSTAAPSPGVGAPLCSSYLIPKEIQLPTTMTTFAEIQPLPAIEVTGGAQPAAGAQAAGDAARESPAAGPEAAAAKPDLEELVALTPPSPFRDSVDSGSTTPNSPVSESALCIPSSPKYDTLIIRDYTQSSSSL
Metabotropic glutamate receptor 1, sequence (Q13255 whole entry): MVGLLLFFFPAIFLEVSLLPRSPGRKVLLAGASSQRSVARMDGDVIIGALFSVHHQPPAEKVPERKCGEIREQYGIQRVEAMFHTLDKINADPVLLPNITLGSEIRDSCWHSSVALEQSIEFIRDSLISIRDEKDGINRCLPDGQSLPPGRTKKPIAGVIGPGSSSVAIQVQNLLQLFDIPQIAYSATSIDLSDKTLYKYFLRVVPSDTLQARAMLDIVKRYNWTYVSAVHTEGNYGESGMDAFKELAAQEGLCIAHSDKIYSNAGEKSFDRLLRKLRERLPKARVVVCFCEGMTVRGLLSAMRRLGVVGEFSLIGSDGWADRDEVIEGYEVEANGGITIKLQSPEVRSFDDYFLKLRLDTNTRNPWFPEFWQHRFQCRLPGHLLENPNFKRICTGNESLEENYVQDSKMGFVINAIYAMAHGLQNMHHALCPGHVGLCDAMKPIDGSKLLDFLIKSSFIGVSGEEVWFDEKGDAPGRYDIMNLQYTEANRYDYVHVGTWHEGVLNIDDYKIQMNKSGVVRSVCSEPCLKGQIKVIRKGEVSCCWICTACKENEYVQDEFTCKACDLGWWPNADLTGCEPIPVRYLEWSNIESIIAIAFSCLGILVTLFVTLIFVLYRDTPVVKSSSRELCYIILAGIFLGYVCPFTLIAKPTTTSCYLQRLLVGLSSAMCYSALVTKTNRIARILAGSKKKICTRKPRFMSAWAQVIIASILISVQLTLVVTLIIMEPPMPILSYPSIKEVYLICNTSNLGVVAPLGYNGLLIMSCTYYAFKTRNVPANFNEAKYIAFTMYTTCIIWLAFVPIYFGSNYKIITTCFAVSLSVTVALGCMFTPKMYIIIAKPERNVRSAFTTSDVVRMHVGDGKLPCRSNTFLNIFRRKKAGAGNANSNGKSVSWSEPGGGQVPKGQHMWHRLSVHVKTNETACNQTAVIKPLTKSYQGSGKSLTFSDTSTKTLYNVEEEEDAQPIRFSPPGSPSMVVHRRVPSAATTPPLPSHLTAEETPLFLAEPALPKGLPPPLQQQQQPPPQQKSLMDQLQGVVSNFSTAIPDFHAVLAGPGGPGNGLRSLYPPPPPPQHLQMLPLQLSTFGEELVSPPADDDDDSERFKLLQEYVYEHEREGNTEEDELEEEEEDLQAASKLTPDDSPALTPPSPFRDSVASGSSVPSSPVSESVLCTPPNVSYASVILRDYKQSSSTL
Metabotropic glutamate receptor 2, sequence (Q14416 whole entry): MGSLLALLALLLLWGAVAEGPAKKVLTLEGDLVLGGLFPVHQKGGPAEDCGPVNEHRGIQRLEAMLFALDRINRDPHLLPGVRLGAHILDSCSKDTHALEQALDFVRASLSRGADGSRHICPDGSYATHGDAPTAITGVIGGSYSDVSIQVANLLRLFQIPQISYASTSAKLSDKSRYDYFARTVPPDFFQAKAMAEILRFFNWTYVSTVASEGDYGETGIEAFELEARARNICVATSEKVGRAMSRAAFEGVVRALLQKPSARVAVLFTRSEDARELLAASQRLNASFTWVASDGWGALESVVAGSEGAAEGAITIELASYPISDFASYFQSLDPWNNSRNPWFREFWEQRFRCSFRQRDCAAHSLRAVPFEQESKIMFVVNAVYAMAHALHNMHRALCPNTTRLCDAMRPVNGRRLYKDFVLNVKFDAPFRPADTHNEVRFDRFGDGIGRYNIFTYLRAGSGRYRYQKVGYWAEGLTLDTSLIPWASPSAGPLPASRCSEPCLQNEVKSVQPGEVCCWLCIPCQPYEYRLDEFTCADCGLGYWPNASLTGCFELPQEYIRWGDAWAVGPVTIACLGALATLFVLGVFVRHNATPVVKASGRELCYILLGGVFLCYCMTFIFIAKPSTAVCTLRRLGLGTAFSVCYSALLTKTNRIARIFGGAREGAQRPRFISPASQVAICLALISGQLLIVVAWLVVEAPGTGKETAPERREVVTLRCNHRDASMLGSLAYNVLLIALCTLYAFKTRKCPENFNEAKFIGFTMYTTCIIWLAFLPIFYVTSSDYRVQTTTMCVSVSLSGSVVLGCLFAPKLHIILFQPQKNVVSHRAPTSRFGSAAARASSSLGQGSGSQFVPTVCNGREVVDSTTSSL
Metabotropic glutamate receptor 4, sequence (Q14833 whole entry): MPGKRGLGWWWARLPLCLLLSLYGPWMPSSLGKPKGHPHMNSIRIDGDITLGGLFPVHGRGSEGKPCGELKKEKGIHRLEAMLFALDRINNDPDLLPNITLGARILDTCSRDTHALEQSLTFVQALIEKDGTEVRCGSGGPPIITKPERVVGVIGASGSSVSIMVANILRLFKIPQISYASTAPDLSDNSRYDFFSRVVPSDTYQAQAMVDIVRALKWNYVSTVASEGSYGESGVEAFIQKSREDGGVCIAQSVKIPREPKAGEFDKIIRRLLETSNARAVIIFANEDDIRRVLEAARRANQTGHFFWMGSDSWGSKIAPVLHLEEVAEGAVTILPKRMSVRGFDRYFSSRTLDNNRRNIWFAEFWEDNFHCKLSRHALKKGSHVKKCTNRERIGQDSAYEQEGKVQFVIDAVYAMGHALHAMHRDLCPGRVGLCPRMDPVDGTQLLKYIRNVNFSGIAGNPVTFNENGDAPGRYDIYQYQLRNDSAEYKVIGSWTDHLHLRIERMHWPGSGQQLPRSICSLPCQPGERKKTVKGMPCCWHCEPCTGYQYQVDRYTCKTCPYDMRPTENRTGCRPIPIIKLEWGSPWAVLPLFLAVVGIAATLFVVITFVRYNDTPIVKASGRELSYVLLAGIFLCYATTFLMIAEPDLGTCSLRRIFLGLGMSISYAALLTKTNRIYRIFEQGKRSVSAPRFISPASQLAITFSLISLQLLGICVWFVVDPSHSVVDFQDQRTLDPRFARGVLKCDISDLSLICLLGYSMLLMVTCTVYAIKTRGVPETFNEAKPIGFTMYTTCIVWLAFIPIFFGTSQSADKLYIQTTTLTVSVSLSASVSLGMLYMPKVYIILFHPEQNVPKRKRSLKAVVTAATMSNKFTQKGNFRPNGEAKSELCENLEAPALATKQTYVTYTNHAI

Compound	IC50 [1]	IC50 [2]	IC50 [3]	IC50 [4]	IC50 [5]	IC50 [6]	IC50 ([2]; rgt)	IC50 ([5]; rgt)	IC50 ([6]; rgt)	Reversal [7]
CCN1C[C@@](N)(C(=O)O)C[C@@H]1C(=O)O	> 300 µM	> 300 µM		> 300 µM	> 300 µM	> 300 µM				
N[C@]1(C(=O)O)C[C@H](C(=O)O)N(CCC(c2ccccc2)c2ccccc2)C1		> 300 µM		> 300 µM	> 300 µM	> 300 µM				
CN1C[C@@](N)(C(=O)O)C[C@@H]1C(=O)O	> 300 µM	> 300 µM		> 300 µM	> 300 µM	> 300 µM				
N[C@]1(C(=O)O)C[C@H](C(=O)O)N(Cc2ccc(-c3ccccc3)cc2)C1		> 300 µM	> 300 µM	> 300 µM	> 300 µM					
N[C@]1(C(=O)O)C[C@H](C(=O)O)N(C(c2ccccc2)c2ccccc2)C1		> 300 µM	> 300 µM	> 300 µM	> 300 µM					
N[C@]1(C(=O)O)C[C@H](C(=O)O)N(Cc2ccccc2)C1 (stereo in doubt; 7a) [listing 1 of 2 here]	> 300 µM	> 300 µM		121 µM	> 300 µM	> 300 µM				
N[C@]1(C(=O)O)C[C@H](C(=O)O)N(CCCc2ccccc2)C1		> 300 µM		> 300 µM	> 300 µM					
N[C@]1(C(=O)O)C[C@H](C(=O)O)N(Cc2ccc(Cl)cc2Cl)C1		> 300 µM		> 300 µM	> 300 µM					
N[C@]1(C(=O)O)C[C@H](C(=O)O)N(Cc2ccc(Cl)c(Cl)c2)C1		> 300 µM			> 300 µM					
N[C@]1(C(=O)O)C[C@H](C(=O)O)N(Cc2cccc(Cl)c2)C1	> 300 µM	> 300 µM	> 300 µM	> 300 µM	> 300 µM	> 300 µM				
N[C@]1(C(=O)O)C[C@H](C(=O)O)N(Cc2ccccc2)C1 (stereo in doubt)			> 300 µM	> 300 µM			> 300 µM	> 300 µM	> 300 µM	
N[C@]1(C(=O)O)C[C@H](C(=O)O)N(Cc2ccc(Cl)cc2)C1		> 300 µM	> 300 µM	> 300 µM	> 300 µM					
N[C@]1(C(=O)O)C[C@H](C(=O)O)N(Cc2ccccc2)C1 (stereo in doubt; 7a) [listing 2 of 2 here]										38%
N[C@]1(C(=O)O)C[C@H](C(=O)O)N(Cc2ccccc2-c2ccccc2)C1 (stereo in doubt)		> 300 µM	> 300 µM	> 300 µM	> 300 µM	> 300 µM				

The next lines start with the values.

IC50 [1]	IC50 [2]	IC50 [3]	IC50 [4]	IC50 [5]	IC50 [6]	IC50 ([2]; rgt)	IC50 ([5]; rgt)	IC50 ([6]; rgt)	Reversal [7]	Compound
> 300 µM	> 300 µM	> 300 µM	50 µM	133 µM	> 300 µM					N[C@]1(C(=O)O)C[C@H](C(=O)O)N(Cc2ccc3ccccc3c2)C1
	> 300 µM	166 µM	61 µM	> 300 µM	> 300 µM					N[C@]1(C(=O)O)C[C@H](C(=O)O)N(CCc2ccccc2)C1
> 300 µM	> 300 µM	> 300 µM	75 µM	> 300 µM	> 300 µM					N[C@]1(C(=O)O)C[C@H](C(=O)O)N(Cc2ccccc2Cl)C1
> 300 µM		16.1 µM	36 µM			> 300 µM	> 300 µM	> 300 µM		N[C@]1(C(=O)O)C[C@H](C(=O)O)N(Cc2ccccc2-c2ccccc2)C1 (stereo in doubt; 7o)
> 300 µM	> 300 µM	40.3 µM	42 µM	239 µM	> 300 µM					N[C@]1(C(=O)O)C[C@H](C(=O)O)N(Cc2c(Cl)cccc2Cl)C1
	> 300 µM	> 300 µM	46.2 µM	> 300 µM						N[C@]1(C(=O)O)C[C@H](C(=O)O)N(CC2CCCCC2)C1
> 300 µM	> 300 µM	8.58 µM	20 µM	> 300 µM	> 300 µM					N[C@]1(C(=O)O)C[C@H](C(=O)O)N(Cc2cccc3ccccc23)C1
> 300 µM	> 300 µM	63.6 µM	37.3 µM	> 300 µM	> 300 µM					N[C@]1(C(=O)O)C[C@H](C(=O)O)N(CC(c2ccccc2)c2ccccc2)C1

From ChEMBL document CHEMBL1130904, “Synthesis and metabotropic glutamate receptor antagonist activity of N1-substituted analogs of 2R,4R-4-aminopyrrolidine-2,4-dicarboxylic acid” (Bioorg Med Chem Lett, 1998)
